Data taken from US7291451B2, “Modulation of pericyte proliferation” (XOMA Technology Ltd., priority 2000, dated 2007).

Assays:
[1] = system: Bovine retinal pigment epithelial cells (RPEC); experiment: Cell growth assay in bovine retinal pigment epithelial cells; format: cell-based; settings: 15 μg/ml
Procedure: (§1) A cell growth assay was performed as follows: Cells were plated onto 12-well culture plates and incubated overnight. The cells were treated with vehicle, vascular endothelial growth factor (VEGF, R & D Systems, Minneapolis, Minn.) at 25 ng/ml, serum, compounds, or combinations thereof. The medium is changed during the incubation period, with fresh medium and fresh test compound added every 2 days. After incubation for indicated time period at 37° C., the cells were lysed in 0.1% SDS and DNA content was measured by means of Hoechst-33258 dye and a fluorometer (model TKO-100, Hoefer Scientific Instruments, San Francisco, Calif.). It has been shown that total cellular DNA content measured in this manner correlates closely with actual cell number as determined by hemocytometer counting of trypsinized cells.
Bovine retinal pigment epithelial cells (RPEC) were isolated by gentle scraping after removal of the neural retina and incubation with 0.2% collagenase as described in King et al., Diabetes, 1987, 36:1460-7. RPEC were cultured in DMEM with 5.5 mM glucose and 10% calf serum (CS, Gibco BRL, Grand Island, N.Y.). Cells were cultured in 5% CO2 at 37° C., and media were changed every other days. Cells were characterized for their homogeneity by immunoreactivity with anti-cytokeratin antibody for RPEC. […]

[2] = system: retinal neovascularization; experiment: Oxygen-pulse induced retinal neovascularization in newborn rats; format: in vivo; settings: for retinal neovascular score (sum of quadrant scores): P18, vehicle 6.41
Procedure: In contrast to the assay for anti-angiogenesis effect of BPI protein products in neonatal mice described in part A above, experiments were conducted in newborn rats Crj:CD(SD)IGS (Charles River, Japan). Unlike the method described in part A above of producing ischemia-induced retinal neovascularization by exposing neonatal mice to a constant level of oxygen at 75±2% for 5 days, newborn rats were exposed to oxygen pulses as described below.
The newborn rats within a few hours after birth were put into the oxygen chamber (780 mm×520 mm×520 mm). The oxygen level in the experimental chamber was controlled with a computer program (Oxycycler, Reming Bioinstruments, N.Y., US). The oxygen level was maintained at 80% for 20.5 hours, then rapidly dropped to 21% for 30 minutes before a gradual return to 80% during the following 3 hours. The program was run for 11 cycles (24 hour per cycle). At the end of 11th cycle (postnatal day 11 (P11)), mothers and newborn rats were transferred to room air condition and kept for 7 days. For a seven day period step newborn rats were injected intraperitoneally with XMP.679 at doses of 2, 6 and 20 mg/kg. On P18, the rats were sacrificed, and the left eyes were enucleated. The eyes were fixed in 4% paraformaldehyde (PFA) for 1 hour. Using scissors, the cornea and sclera were removed from the eyecup. The lens was removed with tweezers, and the vitreous was thoroughly removed with tweezers and scissors. The semi-spherical retina was fixed in 4% PFA and stained, using the method of adenosine diphosphatase (ADPase) histochemistry. Abnormal neovascularization was assessed on P18 by histochemically staining retina for ADPase activity. This procedure preferentially stains retinal vascular endothelium and microglia in rats of this age. The retina was incubated in ADPase incubation medium at 37° C. for 1 hour with gentle agitation. It was then washed thoroughly in cold saline, and treated in a 1:10 dilution of ammonium sulfide for 1 minute. The retina was then washed in […] to remove sulfide. The retina was placed in a small drop of liquid on a saline-coated slide. […] The retina was put in a layer of Perma Fluor® covered with a cover glass. Glomerular buds (tiny popcorn) upon the surface of the regina, fan shaped neovascular fronds, and ridges (vascular complexes that cause a distinct elongate elevation of the retinal surface, and which usually contain several vessels running parallel to the ciliary body) were identified.
Criteria for scoring neovascular intensity were as follows: 0: Nothing; 1: <5 buds; 2: >5 buds, or a frond; 3: Ridge<half of quadrant; or 4: Ridge>half of quadrant. The retinal neovascular scores were equal to the sum of quadrant scores. […]

[3] = system: MAP kinase phosphorylation; experiment: MAP kinase phosphorylation in BRPC; format: cell-based, bovine; settings: 5 μg/ml, 1 to 60 minutes
Procedure: Experiments were also performed in which the level of MAP kinase phosphorylation was determined in BRPC treated with 75 μg/ml rBPI21 or 5 μg/ml XMP.679. […] These observations indicate that exemplary BPI protein products rBPI21 and, to a lesser extent, XMP.679, enhance MAP kinase phosphorylation in BRPC.

[4] = system: bovine retinal endothelial cells (BREC); experiment: Cell growth assay (DNA content) in bovine retinal endothelial cells; format: cell-based
Procedure: Primary cultures of bovine retinal endothelial cells (BREC) were isolated by homogenization and a series of filtration steps as described in King et al., J. Clin. Invest., 1985, 75:1028-36. BREC were subsequently cultured with endothelial cell basal medium (EBM; Clonetics, San Diego, Calif.). supplemented with 10% plasma-derived horse serum (PDHS), 50 mg/l heparin, and 50 μg/ml endothelial cell growth factor (ECGF, Roche, Indianapolis, Ind.). Cells were characterized for homogeneity by their immunoreactivity with anti-factor VIII antibody. Cells remained morphologically unchanged under these conditions, as confirmed by light microscopy. Only cells from passages 2 through 7 were used for the experiments.
as §1
Determinations were performed in triplicate and all experiments were repeated at least three times. Results are expressed as the mean ±standard deviation, unless otherwise indicated. Statistical analysis employed Student's t-test or analysis of variance to compare quantitative data populations with normal distributions and equal variance. Data were analyzed using the Mann-Whitney rank sum test or the Kruskal-Wallis test for populations with non-normal distributions or unequal variance. A P-value of <0.05 was considered statistically significant.

XMP.679: BPI-derived peptide derived from BPI domain II, SEQ ID NO: 3 (KLFKAQAKAKG; XMP.679; listed as Homo sapiens)
growth promoting effect [1]: 20 to 30% | retinal neovascular score (sum of quadrant scores) ([2]; 2 mg/kg/day intraperitoneal): 7.29 | retinal neovascular score (sum of quadrant scores) ([2]; 6 mg/kg/day intraperitoneal): 4.59 | change of retinal neovascularization score versus vehicle ([2]; 6 mg/kg, differences not statistically significant): reduced | retinal neovascular score (sum of quadrant scores) ([2]; 20 mg/kg/day intraperitoneal): 5.56 | effect on MAP kinase phosphorylation [3]: increased MAP kinase phosphorylation over time | effect on DNA content ([4]; 1 μg/ml compound, with and without VEGF): did not have a significant effect | effect on VEGF-dependent growth ([4]; VEGF 25 ng/ml plus 1 μg/ml compound): had no effect | effect on VEGF-dependent growth ([4]; VEGF 25 ng/ml plus 5 and 15 μg/ml compound): totally prevented VEGF-dependent growth | effect on growth ([4]; compound alone, 15 μg/ml, not statistically significant): slight growth inhibitory effect
